In PMC12470104, “The Achilles Heel of Protein Biochemistry: Insolubility of Recombinant Proteins—A Case Study About Producing a Rice Enzyme” (International Journal of Molecular Sciences, 2025) one finds Km data, which are given here for 1 compound.

This assay deals with T1, OsAPSE.
T1 construct: GH27 42-387, ricin-B-like 498-563, GH-all-beta 563-649; catalytic D226, D282
Description: discontinuous pNP release assay, A405; Hanes-Woolf and Eadie-Hofstee. The class given is biochemical, Oryza sativa subsp. japonica. The note with it: 50 mM Tris-HCl pH 8, 25 °C; 50 µg/mL enzyme; protein refolded from inclusion bodies (authors suspect suboptimal folding); 1-20 mM substrate, Km extrapolated above tested range.

For orientation: Km means the substrate concentration at which the rate is half of its maximum. As to `O=[N+]([O-])c1ccc(O[C@H]2O[C@H](CO)[C@H](O)[C@H](O)[C@H]2O)cc1` [pNP-α-D-Galp], the Km was 44 mM.
